± gives the expanded uncertainty stated by the source.
Assays:
[1] = xn = mol fraction of the nth substance listed; details: 101 kPa, Liquid; for speed of sound: Linear variable-path acoustic interferometer; for mass density: Vibrating tube method
[2] = excess molar enthalpy (molar enthalpy of mixing); xn = mol fraction of the nth substance listed; details: 298.15 K, 101 kPa, Liquid, 2-drop calorimetry

c1ccncc1 [pyridine] + CCn1cc[n+](C)c1.F[B-](F)(F)F
[1]
Details	mass density, 293.15 K [kg/m3]	mass density, 298.15 K [kg/m3]	mass density, 303.15 K [kg/m3]	mass density, 308.15 K [kg/m3]	speed of sound, 293.15 K [m/s]	speed of sound, 298.15 K [m/s]	speed of sound, 303.15 K [m/s]	speed of sound, 308.15 K [m/s]
x2 = 0.1225	1057.86 ± 0.35	1053.89 ± 0.35	1049.31 ± 0.34	1044.82 ± 0.34	1486.4 ± 1.9	1466.7 ± 1.9	1450.1 ± 1.9	1431.5 ± 1.9
x2 = 0.1781	1085.74 ± 0.4	1081.91 ± 0.4	1077.49 ± 0.39	1073.08 ± 0.39	1504.8 ± 1.9	1486.7 ± 1.9	1470.9 ± 1.9	1453.6 ± 1.9
x2 = 0.2349	1111.05 ± 0.46	1107.24 ± 0.45	1102.93 ± 0.45	1098.58 ± 0.44	1521.5 ± 2	1505.5 ± 2	1489.4 ± 2	1473.3 ± 2
x2 = 0.2787	1128.56 ± 0.5	1124.75 ± 0.5	1120.49 ± 0.49	1116.15 ± 0.49	1533.4 ± 2	1517.7 ± 2	1502.2 ± 2	1487.6 ± 2
x2 = 0.3215	1144.24 ± 0.55	1140.37 ± 0.54	1136.25 ± 0.54	1131.85 ± 0.53	1544 ± 2.1	1528.8 ± 2	1513.9 ± 2	1499.2 ± 2
x2 = 0.3716	1160.99 ± 0.6	1156.91 ± 0.6	1152.96 ± 0.59	1148.63 ± 0.59	1555.6 ± 2.1	1541.1 ± 2.1	1525 ± 2.1	1512.2 ± 2.1
x2 = 0.4229	1176.47 ± 0.66	1172.38 ± 0.66	1168.48 ± 0.65	1164.16 ± 0.64	1565.7 ± 2.1	1550.9 ± 2.1	1536.1 ± 2.1	1523.5 ± 2.1
x2 = 0.4723	1189.98 ± 0.72	1185.87 ± 0.71	1182.12 ± 0.71	1177.75 ± 0.7	1574 ± 2.2	1560.4 ± 2.2	1544.5 ± 2.2	1533.1 ± 2.2
x2 = 0.5213	1202.28 ± 0.78	1198.15 ± 0.77	1194.47 ± 0.77	1190.17 ± 0.76	1582.4 ± 2.2	1568.3 ± 2.2	1552.8 ± 2.2	1541.1 ± 2.2
x2 = 0.5731	1214.14 ± 0.85	1209.97 ± 0.84	1206.44 ± 0.83	1202.2 ± 0.83	1589.6 ± 2.3	1575.5 ± 2.2	1561.4 ± 2.2	1549.5 ± 2.2
x2 = 0.6212	1224.23 ± 0.91	1220.11 ± 0.9	1216.67 ± 0.9	1212.48 ± 0.89	1596.2 ± 2.3	1582.6 ± 2.3	1568.1 ± 2.3	1557.4 ± 2.3
x2 = 0.6719	1234.08 ± 0.98	1230 ± 0.97	1226.63 ± 0.96	1222.55 ± 0.96	1603.2 ± 2.3	1589.2 ± 2.3	1575.5 ± 2.3	1564.3 ± 2.3
x2 = 0.7224	1243.17 ± 1.1	1239.16 ± 1	1235.85 ± 1	1231.85 ± 1	1609.3 ± 2.4	1595.2 ± 2.4	1583.1 ± 2.4	1571.5 ± 2.4
x2 = 0.7737	1251.76 ± 1.1	1247.81 ± 1.1	1244.54 ± 1.1	1240.61 ± 1.1	1615.2 ± 2.4	1601.3 ± 2.4	1589.7 ± 2.4	1578.5 ± 2.4
x2 = 0.8219	1259.31 ± 1.2	1255.42 ± 1.2	1252.16 ± 1.2	1248.26 ± 1.2	1619.9 ± 2.5	1607 ± 2.5	1595.8 ± 2.4	1584.8 ± 2.4
x2 = 0.8764	1267.33 ± 1.3	1263.49 ± 1.3	1260.17 ± 1.3	1256.28 ± 1.2	1625.1 ± 2.5	1612.2 ± 2.5	1602 ± 2.5	1590.5 ± 2.5
x2 = 0.9223	1273.71 ± 1.4	1269.86 ± 1.3	1266.47 ± 1.3	1262.53 ± 1.3	1628.2 ± 2.5	1616 ± 2.5	1605.5 ± 2.5	1594 ± 2.5
x2 = 0.9349	1275.41 ± 1.4	1271.55 ± 1.4	1268.13 ± 1.4	1264.16 ± 1.3	1628.9 ± 2.5	1616.8 ± 2.5	1606.2 ± 2.5	1594.8 ± 2.5

[2]
Details	excess molar enthalpy [kcal/mol]
x2 = 0.1025	-0.0352 ± 0.000813
x2 = 0.1335	-0.0449 ± 0.00103
x2 = 0.1727	-0.0555 ± 0.00124
x2 = 0.2121	-0.067 ± 0.00148
x2 = 0.2654	-0.0785 ± 0.00172
x2 = 0.3078	-0.087 ± 0.00191
x2 = 0.3587	-0.0968 ± 0.00213
x2 = 0.4112	-0.101 ± 0.00222
x2 = 0.4632	-0.107 ± 0.00234
x2 = 0.4956	-0.108 ± 0.00237
x2 = 0.5325	-0.108 ± 0.00237
x2 = 0.589	-0.106 ± 0.00232
x2 = 0.6312	-0.1 ± 0.0022
x2 = 0.6983	-0.091 ± 0.00198
x2 = 0.7567	-0.0806 ± 0.00177
x2 = 0.8078	-0.0667 ± 0.00148
x2 = 0.8654	-0.0505 ± 0.00115
x2 = 0.9123	-0.0344 ± 0.000813

— the NIST ThermoML archive (doi:10.1016/j.jct.2012.07.007)
